Target: T1, INaL v1.6 (Nav late current, recombinant sodium channels) (Homo sapiens, UniProt Q9UQD0)
T1 construct: expressed in transfected cells; host or cells: HEK-293
Experiment: PatchXpress electrophysiology, ATX-II evoked Nav late current (INaL) in HEK-293 cells expressing recombinant sodium channels
Type: cell-based
Details: HEK293, compound at 1 μM, late current evoked by ATX-II 300 nM, steady state block
Protocol: Functional characterization of exemplary compounds to modulate voltage gated sodium currents was accomplished using the PatchXpress™ high throughput electrophysiology platforms (Molecular Devices, Sunnyvale, CA). HEK-293 cells expressing recombinant sodium channels were grown in DMEM/high-glucose Dulbecco's modified, 10% FBS, 2 mM sodium pyruvate, and G418. Nav channel expressing cells were grown to 50%-80% confluency and harvested by trypsinization. Trypsinized cells were washed and resuspended in extracellular buffer at a concentration of 1×10^6 cells/ml. The onboard liquid handling facility of the PatchXpress was used for dispensing cells and application of test compounds. Nav late currents were evoked by the application of ATX-II, 300 nM. Currents were evoked by depolarizing pulses to 0 mV for 200 ms from a non-inactivating holding potential (e.g., −120 mV to −150 mV) at a frequency of 0.1 Hz. Late current amplitude and stability were determined by analyzing the mean current amplitude over the 175-195 msec region of the 200 msec test pulse. Following steady state block with exemplary compounds (e.g., as described herein) at 1 μM, a Na free solution containing an impermeant cation (e.g., Choline or NDMG) was added for determination of the 0 current level. Late current amplitudes for each test condition were determined from the mean of the 175-195 msec region of the 200 msec test pulse. Percent inhibition of steady state currents was calculated as (compound-baseline)/(control-baseline)*100, where control represents INaL recorded in the absence of compound.

T1 sequence (Q9UQD0 whole entry): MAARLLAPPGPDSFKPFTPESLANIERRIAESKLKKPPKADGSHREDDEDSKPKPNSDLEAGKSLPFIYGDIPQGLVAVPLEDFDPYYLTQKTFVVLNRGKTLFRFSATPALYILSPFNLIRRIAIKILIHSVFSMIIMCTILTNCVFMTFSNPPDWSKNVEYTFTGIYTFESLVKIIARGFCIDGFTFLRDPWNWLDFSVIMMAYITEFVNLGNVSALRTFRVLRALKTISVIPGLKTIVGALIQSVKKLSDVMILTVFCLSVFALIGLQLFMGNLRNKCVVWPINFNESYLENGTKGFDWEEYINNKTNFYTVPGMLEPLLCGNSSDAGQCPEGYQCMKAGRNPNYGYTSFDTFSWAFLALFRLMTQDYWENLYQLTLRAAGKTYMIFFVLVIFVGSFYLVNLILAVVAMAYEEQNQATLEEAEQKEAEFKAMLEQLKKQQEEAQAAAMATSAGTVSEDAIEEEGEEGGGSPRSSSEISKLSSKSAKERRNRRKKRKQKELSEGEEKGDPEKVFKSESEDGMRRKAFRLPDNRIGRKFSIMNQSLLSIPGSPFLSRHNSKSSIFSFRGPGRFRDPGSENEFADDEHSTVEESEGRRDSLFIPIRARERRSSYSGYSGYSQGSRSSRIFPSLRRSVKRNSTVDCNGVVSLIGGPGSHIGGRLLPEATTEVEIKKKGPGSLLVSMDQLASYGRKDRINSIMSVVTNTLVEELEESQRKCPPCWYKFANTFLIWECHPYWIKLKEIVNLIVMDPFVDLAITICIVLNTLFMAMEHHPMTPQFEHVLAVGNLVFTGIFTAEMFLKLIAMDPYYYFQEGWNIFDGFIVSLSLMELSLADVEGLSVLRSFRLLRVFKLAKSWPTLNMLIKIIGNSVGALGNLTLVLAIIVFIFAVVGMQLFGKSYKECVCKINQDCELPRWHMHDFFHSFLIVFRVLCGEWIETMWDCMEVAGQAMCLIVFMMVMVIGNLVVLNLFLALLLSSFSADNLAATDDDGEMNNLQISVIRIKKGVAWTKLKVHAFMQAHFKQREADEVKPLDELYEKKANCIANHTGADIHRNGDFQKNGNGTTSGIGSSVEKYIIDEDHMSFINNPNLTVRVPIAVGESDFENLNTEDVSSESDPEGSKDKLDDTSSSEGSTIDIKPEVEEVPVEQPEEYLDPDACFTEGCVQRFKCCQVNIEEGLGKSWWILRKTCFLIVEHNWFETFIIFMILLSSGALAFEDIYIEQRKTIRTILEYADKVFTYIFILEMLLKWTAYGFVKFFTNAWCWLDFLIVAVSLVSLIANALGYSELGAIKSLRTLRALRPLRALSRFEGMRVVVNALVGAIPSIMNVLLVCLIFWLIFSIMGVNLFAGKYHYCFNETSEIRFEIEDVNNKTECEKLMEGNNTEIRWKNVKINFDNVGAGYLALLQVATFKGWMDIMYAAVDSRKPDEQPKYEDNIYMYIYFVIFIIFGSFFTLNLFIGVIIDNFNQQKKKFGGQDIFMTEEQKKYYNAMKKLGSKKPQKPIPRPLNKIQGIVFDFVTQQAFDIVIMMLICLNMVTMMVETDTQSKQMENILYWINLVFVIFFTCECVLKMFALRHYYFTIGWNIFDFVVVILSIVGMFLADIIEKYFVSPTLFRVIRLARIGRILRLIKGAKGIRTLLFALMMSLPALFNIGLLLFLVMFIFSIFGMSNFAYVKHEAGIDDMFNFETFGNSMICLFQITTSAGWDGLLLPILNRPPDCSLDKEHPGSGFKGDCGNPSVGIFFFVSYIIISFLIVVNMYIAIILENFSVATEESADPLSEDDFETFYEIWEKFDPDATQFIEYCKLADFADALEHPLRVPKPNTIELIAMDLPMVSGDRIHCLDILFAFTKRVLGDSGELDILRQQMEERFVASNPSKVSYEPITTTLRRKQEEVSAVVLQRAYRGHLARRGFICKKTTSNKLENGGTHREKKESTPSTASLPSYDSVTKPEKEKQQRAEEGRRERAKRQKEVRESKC

| SMILES | inhibition at 1 µM |
| --- | --- |
| C[C@H](Oc1ncc(-c2ccc3nnc(C(F)(F)F)n3c2)cc1F)C(F)(F)F [Example 1, 6-[5-fluoro-6-[(1S)-2,2,2-trifluoro-1-methyl-ethoxy]-3-pyridyl]-3-(trifluoromethyl)-[1,2,4]triazolo[4,3-a]pyridine] | > 75% |
| C[C@@H](Oc1ncc(-c2ccc3nnc(C(F)(F)F)n3c2)cc1F)C(F)(F)F [Example 2, 6-[5-fluoro-6-[(1R)-2,2,2-trifluoro-1-methyl-ethoxy]-3-pyridyl]-3-(trifluoromethyl)-[1,2,4]triazolo[4,3-a]pyridine] | > 75% |
| C[C@@H](Oc1ncc(-c2ccc3nnc(C(F)F)n3c2)cc1F)C(F)(F)F [Example 3, 3-(difluoromethyl)-6-[5-fluoro-6-[(1R)-2,2,2-trifluoro-1-methyl-ethoxy]-3-pyridyl]-[1,2,4]triazolo[4,3-a]pyridine] | > 75% |
| C[C@H](Oc1ncc(-c2ccc3nnc(C(F)F)n3c2)cc1F)C(F)(F)F [Example 4, 3-(difluoromethyl)-6-[5-fluoro-6-[(1S)-2,2,2-trifluoro-1-methyl-ethoxy]-3-pyridyl]-[1,2,4]triazolo[4,3-a]pyridine] | > 75% |
| CC(C)(Oc1ncc(-c2ccc3nnc(C(F)F)n3c2)cc1F)C(F)(F)F [Example 5, 3-(difluoromethyl)-6-[5-fluoro-6-(2,2,2-trifluoro-1,1-dimethyl-ethoxy)-3-pyridyl]-[1,2,4]triazolo[4,3-a]pyridine] | > 75% |
| CC(C)(Oc1ncc(-c2ccc3nnc(C(F)(F)F)n3c2)cc1F)C(F)(F)F [Example 6, 6-[5-fluoro-6-(2,2,2-trifluoro-1,1-dimethyl-ethoxy)-3-pyridyl]-3-(trifluoromethyl)-[1,2,4]triazolo[4,3-a]pyridine] | > 75% |
| Fc1cc(-c2ccc3nnc(C(F)(F)F)n3c2)cnc1OC1(C(F)(F)F)CCC1 [Example 7, 6-[5-fluoro-6-[1-(trifluoromethyl)cyclobutoxy]-3-pyridyl]-3-(trifluoromethyl)-[1,2,4]triazolo[4,3-a]pyridine] | > 75% |

Further lines, results first:

| inhibition at 1 µM | SMILES |
| --- | --- |
| 50 to 75% | Fc1cc(-c2ccc3nnc(C(F)(F)F)n3c2)cnc1OC1(C(F)(F)F)COC1 [Example 8, 6-[5-fluoro-6-[3-(trifluoromethyl)oxetan-3-yl]oxy-3-pyridyl]-3-(trifluoromethyl)-[1,2,4]triazolo[4,3-a]pyridine] |
| 50 to 75% | Fc1cc(-c2ccc3nnc(C(F)F)n3c2)cnc1OCC(F)(F)F [Example 9, 3-(difluoromethyl)-6-[5-fluoro-6-(2,2,2-trifluoroethoxy)-3-pyridyl]-[1,2,4]triazolo[4,3-a]pyridine] |
| > 75% | Fc1cc(-c2ccc3nnc(C(F)(F)F)n3c2)cnc1OCC(F)(F)F [Example 10, 6-[5-fluoro-6-(2,2,2-trifluoroethoxy)-3-pyridyl]-3-(trifluoromethyl)-[1,2,4]triazolo[4,3-a]pyridine] |

Source: US12030881B2, “Ion channel modulators” (PRAXIS PRECISION MEDICINES, INC., priority 2019, dated 2024)
